Several values for one entry are separate records, joined by “and”; a condition that tells them apart may be missing. Equal values may be shown once. Toxic doses and inconclusive results are not listed.
Tested on: BDF1 mice, L1210 leukemia sc, survival T/C
Experiment: NCI In Vivo Anticancer Drug Screen. Data for tumor model L1210 Leukemia (subcutaneous) in B6D2F1 (BDF1) mice
Details: higher = longer survival
How it was run: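 Read-out: T/C ratio, i.e. survival or tumor size in treated mice over that in vehicle-treated controls, from mice bearing transplantable tumors.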

For `CN(Cc1cnc2nc(N)nc(N)c2n1)c1ccc(C(=O)N[C@@H](CCC(=O)O)C(=O)O)cc1`, the T/C (endpoint: mean survival time, dose: 0.65 mg/kg/injection, schedule: Q01DX009 (sc), vehicle: other) was 166 % of control and 168 % of control, the T/C (endpoint: mean survival time, dose: 1.0 mg/kg/injection, schedule: Q01DX015 (ip), vehicle: other) was 158 % of control and 163 % of control and 171 % of control and the T/C (endpoint: mean survival time, dose: 1.08 mg/kg/injection, schedule: Q01DX009 (sc), vehicle: other) was 158 % of control. The T/C (endpoint: mean survival time, dose: 1.8 mg/kg/injection, schedule: Q01DX009 (sc), vehicle: other) was 171 % of control, the T/C (endpoint: mean survival time, dose: 2.0 mg/kg/injection, schedule: Q01DX009 (ip), vehicle: sodium bicarbonate) was 154 % of control and 166 % of control and the T/C (endpoint: mean survival time, dose: 4.0 mg/kg/injection, schedule: Q01DX009 (ip), vehicle: sodium bicarbonate) was 88 % of control. The T/C (endpoint: mean survival time, dose: 20.0 mg/kg/injection, schedule: Q04DX003 (ip), vehicle: sodium bicarbonate) was 158 % of control, the T/C (endpoint: mean survival time, dose: 45.0 mg/kg/injection, schedule: Q04DX004 (ip), vehicle: other) was 99 % of control and 101 % of control and the T/C (endpoint: mean survival time, dose: 60.0 mg/kg/injection, schedule: Q04DX004 (ip), vehicle: other) was 90 % of control and 105 % of control and 124 % of control. For the same compound, the T/C (endpoint: mean survival time, dose: 80.0 mg/kg/injection, schedule: Q04DX003 (ip), vehicle: sodium bicarbonate) was 91 % of control, the T/C (endpoint: mean survival time, dose: 200.0 mg/kg/injection, schedule: Q01DX001 (ip), vehicle: other) was 91 % of control and 111 % of control and 116 % of control and the T/C (endpoint: median survival time, dose: 0.01 mg/kg/injection, schedule: Q## X Z (sc), vehicle: other) was 100 % of control. For the same compound, the T/C (endpoint: median survival time, dose: 0.02 mg/kg/injection, schedule: Q## X Z (sc), vehicle: other) was 100 % of control, the T/C (endpoint: median survival time, dose: 0.03 mg/kg/injection, schedule: Q## X Z (sc), vehicle: other) was 105 % of control and the T/C (endpoint: median survival time, dose: 0.05 mg/kg/injection, schedule: Q#A X Z (sc), vehicle: other) was 105 % of control. The T/C (endpoint: median survival time, dose: 0.14 mg/kg/injection, schedule: Q#A X Z (sc), vehicle: other) was 122 % of control, the T/C (endpoint: median survival time, dose: 0.17 mg/kg/injection, schedule: Q01DX Z (iv), vehicle: other) was 112 % of control and the T/C (endpoint: median survival time, dose: 0.23 mg/kg/injection, schedule: Q01DX Z (ip), vehicle: other) was 100 % of control. For the same compound, the T/C (endpoint: median survival time, dose: 0.23 mg/kg/injection, schedule: Q01DX Z (sc), vehicle: sodium bicarbonate) was 109 % of control, the T/C (endpoint: median survival time, dose: 0.24 mg/kg/injection, schedule: Q01DX Z (sc), vehicle: other) was 104 % of control and 108 % of control and the T/C (endpoint: median survival time, dose: 0.3 mg/kg/injection, schedule: Q01DX Z (sc), vehicle: other) was 112 % of control. The T/C (endpoint: median survival time, dose: 0.39 mg/kg/injection, schedule: Q01DX006 (sc), vehicle: other) was 110 % of control, the T/C (endpoint: median survival time, dose: 0.39 mg/kg/injection, schedule: Q01DX008 (sc), vehicle: other) was 110 % of control and the T/C (endpoint: median survival time, dose: 0.39 mg/kg/injection, schedule: Q01DX009 (sc), vehicle: other) was 122 % of control. The T/C (endpoint: median survival time, dose: 0.39 mg/kg/injection, schedule: Q01DX Z (ip), vehicle: other) was 105 % of control, the T/C (endpoint: median survival time, dose: 0.47 mg/kg/injection, schedule: Q01DX Z (iv), vehicle: other) was 112 % of control and the T/C (endpoint: median survival time, dose: 0.47 mg/kg/injection, schedule: Q01DX Z (oral), vehicle: other) was 112 % of control. The T/C (endpoint: median survival time, dose: 0.65 mg/kg/injection, schedule: Q01DX008 (sc), vehicle: other) was 155 % of control and 166 % of control, the T/C (endpoint: median survival time, dose: 0.65 mg/kg/injection, schedule: Q01DX009 (sc), vehicle: other) was 169 % of control and the T/C (endpoint: median survival time, dose: 0.65 mg/kg/injection, schedule: Q01DX017 (sc), vehicle: sodium bicarbonate) was 166 % of control. The T/C (endpoint: median survival time, dose: 0.65 mg/kg/injection, schedule: Q01DX Z (oral), vehicle: other) was 90 % of control, the T/C (endpoint: median survival time, dose: 0.65 mg/kg/injection, schedule: Q02DX009 (sc), vehicle: other) was 111 % of control and the T/C (endpoint: median survival time, dose: 0.65 mg/kg/injection, schedule: Q02DX Z (sc), vehicle: other) was 111 % of control. The T/C (endpoint: median survival time, dose: 1.08 mg/kg/injection, schedule: Q01DX006 (sc), vehicle: other) was 150 % of control, the T/C (endpoint: median survival time, dose: 1.08 mg/kg/injection, schedule: Q01DX008 (sc), vehicle: other) was 160 % of control and 166 % of control and the T/C (endpoint: median survival time, dose: 1.08 mg/kg/injection, schedule: Q01DX009 (ip), vehicle: sodium bicarbonate) was 156 % of control and 166 % of control and 168 % of control. The T/C (endpoint: median survival time, dose: 1.08 mg/kg/injection, schedule: Q01DX017 (sc), vehicle: sodium bicarbonate) was 158 % of control, the T/C (endpoint: median survival time, dose: 1.08 mg/kg/injection, schedule: Q01DX Z (ip), vehicle: other) was 160 % of control and the T/C (endpoint: median survival time, dose: 1.08 mg/kg/injection, schedule: Q01DX Z (oral), vehicle: other) was 110 % of control. For the same compound, the T/C (endpoint: median survival time, dose: 1.08 mg/kg/injection, schedule: Q02DX009 (sc), vehicle: other) was 119 % of control, the T/C (endpoint: median survival time, dose: 1.08 mg/kg/injection, schedule: Q02DX Z (sc), vehicle: other) was 122 % of control and the T/C (endpoint: median survival time, dose: 1.08 mg/kg/injection, schedule: Q#A X Z (sc), vehicle: other) was 166 % of control. For the same compound, the T/C (endpoint: median survival time, dose: 1.5 mg/kg/injection, schedule: Q01DX009 (ip), vehicle: sodium bicarbonate) was 155 % of control and 167 % of control, the T/C (endpoint: median survival time, dose: 1.8 mg/kg/injection, schedule: Q01DX006 (sc), vehicle: other) was 155 % of control and the T/C (endpoint: median survival time, dose: 1.8 mg/kg/injection, schedule: Q01DX008 (sc), vehicle: other) was 160 % of control. The T/C (endpoint: median survival time, dose: 1.8 mg/kg/injection, schedule: Q01DX009 (ip), vehicle: sodium bicarbonate) was 166 % of control and 171 % of control, the T/C (endpoint: median survival time, dose: 2.89 mg/kg/injection, schedule: Q01DX Z (ip), vehicle: other) was 155 % of control and the T/C (endpoint: median survival time, dose: 3.0 mg/kg/injection, schedule: Q01DX006 (sc), vehicle: other) was 160 % of control and 166 % of control. For the same compound, the T/C (endpoint: median survival time, dose: 3.0 mg/kg/injection, schedule: Q01DX008 (sc), vehicle: other) was 160 % of control, the T/C (endpoint: median survival time, dose: 3.0 mg/kg/injection, schedule: Q01DX010 (sc), vehicle: other) was 161 % of control and the T/C (endpoint: median survival time, dose: 3.0 mg/kg/injection, schedule: Q01DX012 (ip), vehicle: sodium bicarbonate) was 122 % of control. For the same compound, the T/C (endpoint: median survival time, dose: 3.0 mg/kg/injection, schedule: Q01DX Z (oral), vehicle: other) was 160 % of control, the T/C (endpoint: median survival time, dose: 3.0 mg/kg/injection, schedule: Q02DX009 (sc), vehicle: other) was 164 % of control and the T/C (endpoint: median survival time, dose: 3.0 mg/kg/injection, schedule: Q02DX Z (sc), vehicle: other) was 166 % of control. For the same compound, the T/C (endpoint: median survival time, dose: 3.02 mg/kg/injection, schedule: Q01DX Z (sc), vehicle: other) was 166 % of control, the T/C (endpoint: median survival time, dose: 3.64 mg/kg/injection, schedule: Q01DX Z (sc), vehicle: other) was 166 % of control and the T/C (endpoint: median survival time, dose: 3.9 mg/kg/injection, schedule: Q01DX Z (sc), vehicle: other) was 150 % of control. The T/C (endpoint: median survival time, dose: 4.0 mg/kg/injection, schedule: Q01DX Z (sc), vehicle: water) was 155 % of control, the T/C (endpoint: median survival time, dose: 4.7 mg/kg/injection, schedule: Q01DX Z (sc), vehicle: other) was 166 % of control and the T/C (endpoint: median survival time, dose: 5.0 mg/kg/injection, schedule: Q01DX009 (ip), vehicle: sodium bicarbonate) was 166 % of control and 171 % of control. The T/C (endpoint: median survival time, dose: 5.0 mg/kg/injection, schedule: Q01DX025 (sc), vehicle: other) was 168 % of control, the T/C (endpoint: median survival time, dose: 5.0 mg/kg/injection, schedule: Q01DX Z (sc), vehicle: sodium bicarbonate) was 100 % of control and the T/C (endpoint: median survival time, dose: 6.0 mg/kg/injection, schedule: Q01DX009 (ip), vehicle: sodium bicarbonate) was 119 % of control. The T/C (endpoint: median survival time, dose: 6.0 mg/kg/injection, schedule: Q01DX Z (oral), vehicle: other) was 156 % of control, the T/C (endpoint: median survival time, dose: 14.0 mg/kg/injection, schedule: Q## X Z (sc), vehicle: other) was 109 % of control and 113 % of control and the T/C (endpoint: median survival time, dose: 62.5 mg/kg/injection, schedule: Q01DX001 (sc), vehicle: other) was 111 % of control. For the same compound, the T/C (endpoint: median survival time, dose: 65.0 mg/kg/injection, schedule: Q04DX005 (sc), vehicle: sodium bicarbonate) was 108 % of control, the T/C (endpoint: median survival time, dose: 65.0 mg/kg/injection, schedule: Q## X Z (sc), vehicle: other) was 152 % of control and the T/C (endpoint: median survival time, dose: 100.0 mg/kg/injection, schedule: Q01DX001 (sc), vehicle: sodium bicarbonate) was 150 % of control. For the same compound, the T/C (endpoint: median survival time, dose: 108.0 mg/kg/injection, schedule: Q## X Z (sc), vehicle: other) was 117 % of control and the T/C (endpoint: median survival time, dose: 125.0 mg/kg/injection, schedule: Q01DX001 (sc), vehicle: other) was 116 % of control.
